{
  "source": "patent US11124489B2",
  "about": "“EPAC antagonists” (priority 2017, dated 2021)",
  "key": {"[1]": {"target": "T1, EPAC1 (Homo sapiens (Human), UniProt O95398)"}, "[2]": {"tested_on": "OVA-specific IgG1 antibodies", "details": "mouse, in vivo"}, "[3]": {"tested_on": "pSTAT3 Y705", "details": "brain slices, basal state and in response to leptin stimulation", "protocol": "(§1) To explore the feasibility of increasing leptin sensitivity by targeting Epac1 using small molecules, organotypic brain slice cultures were prepared from 11-day old wild-type C57BL/6 mice. After 7 days ex vivo culture, treatment of the brain tissue with the Epac specific antagonist ESI-09 led to an enhanced pSTAT3 Y705 level both at the basal state and in response to leptin stimulation. […] These pharmacological data are in agreement with results obtained using Epac1 KO mice and further confirm that inhibition of Epac1 enhances leptin signaling in the hypothalamus. To further investigate the therapeutic potential of this small molecule, wild-type mice were with ESI-09 (50 mg/kg) or vehicle (corn oil) by oral gavage for 3 weeks."}, "[4]": {"tested_on": "leptin", "details": "wild-type mice, 50 mg/kg oral gavage for 3 weeks, relative to vehicle", "protocol": "as §1"}, "[5]": {"target": "EPAC2 (Mus musculus (Mouse), UniProt Q9EQZ6)", "description": "In Vitro Evaluation of EPAC2 Inhibition.\nIn vitro EPAC GEF activity was acquired as previously described (Zhu et al., Sci. Rep. (2015) 5:9344). Briefly, the assay was performed using 500 nM Rap1b-BODIPY-GDP and 200 nM EPAC proteins in buffer containing 50 mM Tris-HCl pH 7.5, 50 mM NaCl, 5 mM MgCl2, 1 mM DTT, 50 mM GDP and the indicated concentrations of test compounds at room temperature using half-area 96-well plates (Corning Costar 3915). The exchange reaction was monitored using a Spectramax M2 Plate Reader (Molecular Devices) with the excitation/emission wavelengths set at 485/515 nm. The reaction rate constant (kobs) was determined by globally fitting the experimental data to a single exponential equation."}, "[6]": {"target": "T1, EPAC1", "details": "read-out: IC50 in inhibiting EPAC1; reference compound, Zhu et al., Sci. Rep. (2015); cited from earlier work"}, "[7]": {"tested_on": "R. australia", "details": "10 mg/kg IP daily, lethal dose of R. australia", "protocol": "WT C57BL/6 mice were treated with vehicle or ESI-09 (10 mg/kg, IP) daily. Five days after the treatment, mice were challenged with lethal dose of R. australia and continued ESI-09 daily treatment."}, "[8]": {"tested_on": "R. australia", "details": "HUVEC cells, vs vehicle"}, "[9]": {"details": "mice, single IP injection 10 mg/kg", "protocol": "In vivo pharmacokinetic studies were performed in four week old female C57BL6/N mice."}},
  "note": "Where two headings read alike, the source gives them in different places.",
  "data": [
    {"smiles": "CC(C)(C)c1cc(C(=O)/C(C#N)=N/Nc2cccc(Cl)c2)no1", "note": "[ESI-09]", "values": [
      {"measurement": "Relative GEF activity, EPAC1-mediated Rap1b-bGDP exchange", "setting": "[1]", "result": "Dose-dependent inhibition"},
      {"measurement": "IC50", "setting": "[1]; read-out: Rap 1b-bGDP EPAC1 IC50", "result": "10.8 ± 1.6", "unit": "µM"},
      {"measurement": "level of serum OVA-specific IgG1 antibodies", "setting": "[2]", "result": "significantly higher"},
      {"measurement": "pSTAT3 Y705 level", "setting": "[3]", "result": "enhanced"},
      {"measurement": "Plasma leptin", "setting": "[4]", "result": "significantly reduced"},
      {"measurement": "fold more potent on EPAC2 inhibition than on EPAC1", "setting": "[5]; EPAC2 vs EPAC1", "result": 2.5, "unit": "fold"},
      {"measurement": "Relative GEF activity, EPAC2-mediated Rap1b-bGDP exchange", "setting": "[5]; in the presence of 20 μM cAMP, figure", "result": "Dose-dependent inhibition"},
      {"measurement": "IC50", "setting": "[5]; read-out: Rap1b-bGDP EPAC2 IC50, apparent IC50, EPAC2 GEF activity, 20 μM cAMP", "result": 4.4, "unit": "µM"},
      {"measurement": "IC50", "setting": "[6]", "result": 10.8, "unit": "µM"},
      {"measurement": "share of treatment group showing sign of sickness", "setting": "[7]", "result": 10, "unit": "%"},
      {"measurement": "number of intracellular R. australia", "setting": "[8]", "result": "dramatically reduced"},
      {"measurement": "half-life", "setting": "[9]", "result": 3.5, "unit": "h"},
      {"measurement": "maximal blood level", "setting": "[9]", "result": "42,520 ng/ml"},
      {"measurement": "time of maximal blood level", "setting": "[9]", "result": 0.5, "unit": "h"}
    ]}
  ]
}
